pIC50: −log10 of the molar value.
Columns and labels:
[1] = Pharmacokinetic studies on healthy rats; type: in vivo; conditions: male, rat, po, SD rats, 10 mg/kg i.g., plasma; for AUC(0-t): read-out: AUC0-24
From the text: SD rats were used as test animals, and LC/MS/MS method was applied for measuring the drug concentrations of rats at different time after administrating the compounds of the present invention by gavage, respectively. Pharmacokinetic behaviors of the compounds of the present invention on rats were studied, so as to evaluate the pharmacokinetic characteristics thereof.
(§1) SD rats, weighing 180-220 g, male, 40 rats, 5 rats in each group, provided by Chengdu Dashuo Biological Technology Co., Ltd.; Production facility license: SCXK (Chuan) 2008-24. Animals were housed in the animal room after purchased, adaptively observed for at least three days, and used for assays unless they were qualified for the quarantine standard.
3.1 Grouping: the rats were randomly grouped according to Table 3, with no significant difference among the groups;
Rats in each group was administrated by gavage with the corresponding investigational drugs according to Table 3, at 5 min, 10 min, 20 min, 30 min, 1 h, 2 h, 4 h, 6 h, 8 h, 10 h, 12 h, 24 h after administration, 0.5 ml of blood was taken into the vacuum blood-collection tubes containing heparin sodium, and centrifuged at 5,000 rpm to obtain plasma which was stored at −20° C.
50 μL plasma at each time after administration was taken, then 150 μL of acetonitrile was added, which was subjected to vortex at 1500 rpm for 2 minutes. Solution was centrifuged for 15 minutes (3500 r/min), after that 10 μL supernatant was analyzed by HPLC/MS/MS.
The pharmacokinetic behaviors of the investigational compounds were subjected to compartmental model fitting, and DAS 2.0 software was used to calculate the main pharmacokinetic parameters.

APTT of healthy mice = assay: Effects on APTT of healthy mice; type: in vivo, KM mice; conditions: 5 mg/kg i.g.; for APTT (sec): KM mice, blood collected 1 hour after administration, x ± SD, 10 mice per group; for anticoagulant effect (APTT) compared with positive drug Apixaban: same dose
From the text: Test for four coagulation parameters (including prothrombin time (PT), activated partial thromboplastin time (APTT), thrombin time (TT) and fibrinogen (FIB)) belongs to one of clinical inspection items, and is necessary to thrombotic disease inspections or before the surgery. APTT mainly reflects whether the intrinsic coagulation system status is normal or not. Accordingly, the APTT value is used as a detection indicator in this test of the present invention. The anticoagulant effects of the compounds prepared in the Examples of the present invention were evaluated through the effects thereof on APTT of mice.
as §1, with “KM mice,” for “SD rats,”, “28-30” for “180-220”, “170 mice,” for “40 rats, 5 rats in each group,”
(1) Grouping: mice were grouped and tested according to Table 1, wherein there were 10 mice in each group.
Mice in each group were administrated with the corresponding investigational drugs (mice in control group were administrated with the normal saline). At 1 hour after administration, blood was collected into 0.5 ml vacuum blood-collection tube containing sodium citrate from mice orbit. APTT values of animals were measured after collecting the blood samples.
Excel was used for statistics, experimental data were expressed as (x±SD), and two-sided T-test method was used to statistically compare the experimental data among multiple groups.

human FXa = human FXa (Homo sapiens, UniProt P00742); assay: Human FXa inhibition assay (fluorogenic substrate); type: biochemical; conditions: human FXa 1 nM, substrate 106.7 μM, 30 minutes at room temperature, pH 8.0
Sequence of human FXa (P00742 235-488 limits assumed): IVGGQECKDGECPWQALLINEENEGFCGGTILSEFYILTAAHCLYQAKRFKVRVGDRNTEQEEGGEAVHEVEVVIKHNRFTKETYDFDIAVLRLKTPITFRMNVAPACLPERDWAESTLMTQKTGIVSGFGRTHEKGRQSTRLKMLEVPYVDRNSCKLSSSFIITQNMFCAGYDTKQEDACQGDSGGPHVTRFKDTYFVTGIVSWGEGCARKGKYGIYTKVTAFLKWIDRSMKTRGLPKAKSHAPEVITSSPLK
Sequence of human FXa (P00742 41-179 partner limits assumed): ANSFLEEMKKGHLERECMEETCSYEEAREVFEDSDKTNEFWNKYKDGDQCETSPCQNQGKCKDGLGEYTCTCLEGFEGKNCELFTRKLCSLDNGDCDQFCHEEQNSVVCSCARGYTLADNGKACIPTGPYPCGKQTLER
Method: Inhibitory effects of the compounds of the present invention on human FXa were studied, to measure IC50 values thereof on human FXa.
human FXa enzyme (Sekisui Diagnostics, REF 526);
Fluorogenic substrate for the FXa assay (American diagnostic, Product No. 222F);
Buffer: 20 mM Tris-HCl, 200 mM NaCl, 2.5 mM CaCl2, pH 8.0.
(2) 10 mM of each compound was 5-fold diluted serially with buffer to different concentrations (from 40 μM to 0.00002048 μM);
(3) 6 μL of the above diluted solutions of Step (2) were added into each well of 384-well plate to make a final volume of 60 μL, and the final concentration of the compound ranged from 4 μM to […];
(4) 30 μL of human FXa enzyme (2 nM) was added into each well, with a final concentration of 1 nM;
(5) 24 μL human FXa fluorescent enzyme substrate (266.7 μM) was added into each well, with a final concentration of 106.7 μM;
(6) the plate was gently shaked for 5 minutes and then incubated for 30 minutes at room temperature, with avoidance from light;
(7) fluorescence signal was read at 360/440 nm, the inhibition percentage was measured, and 4 Parameter Logistic Model in Xlfit software was employed to calculate IC50.

Row | Cmax [1] | Tmax [1] | half-life [1] | AUC(0-t) [1] | pIC50 (human FXa) | Compound | APTT (sec) (APTT of healthy mice) | APTT value compared with the control group (APTT of healthy mice; mice, 1 h after administration, P<0.01) | anticoagulant effect (APTT) compared with positive drug Apixaban (APTT of healthy mice; mice, 1 h after administration)
1 | 6850 ng/mL | 0.5 h | 5.2 h | 12900 ng·h/mL |  | COc1ccc(-n2nc(C(N)=O)c3c2C(=O)N(c2ccc(N4CCCCC4=O)cc2)CC3)cc1 [Apixaban, reference compound] | 21.46 ± 2.32 * * sec | significantly increase | 
2 |  |  |  |  |  | CSc1ccc(-n2nc(C(N)=O)c3c2C(=O)N(c2ccc(N4CCCCC4=O)cc2)CC3)cc1 [Example 2, 1-(4-methylthiophenyl)-7-oxo-6-[4-(2-oxo-piperidin-1-yl)phenyl]-4,5,6,7-tetrahydro-1H-pyrazolo[3,4-c]pyridine-3-carboxamide] | 24.50 ± 2.50 * * ^Δ sec |  | superior to positive drug Apixaban
3 |  |  |  |  |  | NC(=O)c1nn(-c2ccccc2F)c2c1CCN(c1ccc(N3CCCCC3=O)cc1)C2=O [Example 3, 1-(2-fluorophenyl)-7-oxo-6-[4-(2-oxo-piperidin-1-yl)phenyl]-4,5,6,7-tetrahydro-1H-pyrazolo[3,4-c]pyridine-3-carboxamide] | 27.81 ± 3.42 * * ^ΔΔ sec |  | significantly better than positive drug Apixaban
4 |  |  |  |  |  | COc1ccc(-n2nc(C(N)=O)c3c2C(=O)N(c2ccc(N4CCCCC4=O)cc2)CC3)cc1F [Example 4, 1-(3-fluoro-4-methoxyphenyl)-7-oxo-6-[4-(2-oxo-piperidin-1-yl)phenyl]-4,5,6,7-tetrahydro-1H-pyrazolo[3,4-c]pyridine-3-carboxamide] | 24.78 ± 2.64 * * ^Δ sec |  | superior to positive drug Apixaban
5 | 7560 ng/mL | 0.3 h | 5.8 h | 19800 ng·h/mL |  | NC(=O)c1nn(-c2ccccc2F)c2c1CCN(c1ccc(N3CCCC3=O)cc1)C2=O [Example 6, 1-(2-fluorophenyl)-7-oxo-6-[4-(2-oxo-pyrrolidin-1-yl)phenyl]-4,5,6,7-tetrahydro-1H-pyrazolo[3,4-c]pyridine-3-carboxamide] | 27.32 ± 3.12 * * ^ΔΔ sec |  | significantly better than positive drug Apixaban
6 | 7860 ng/mL | 0.3 h | 6.2 h | 20100 ng·h/mL |  | NC(=O)c1nn(-c2cc(F)cc(F)c2)c2c1CCN(c1ccc(N3CCCC3=O)cc1)C2=O [Example 8, 1-(3,5-difluoro-phenyl)-7-oxo-6-[4-(2-oxo-pyrrolidin-1-yl)phenyl]-4,5,6,7-tetrahydro-1H-pyrazolo[3,4-c]pyridine-3-carboxamide] | 27.82 ± 2.71 * * ^ΔΔ sec |  | significantly better than positive drug Apixaban
7 | 9360 ng/mL | 0.2 h | 6.4 h | 36400 ng·h/mL | 10.11 | COc1ccc(-n2nc(C(N)=O)c3c2C(=O)N(c2ccc(N4CCCC4=O)cc2C)CC3)cc1 [Example 9, 1-(4-methoxyphenyl)-7-oxo-6-[2-methyl-4-(2-oxo-pyrrolidin-1-yl)phenyl]-4,5,6,7-tetrahydro-1H-pyrazolo[3,4-c]pyridine-3-carboxamide] | 31.29 ± 2.80 * * ^ΔΔ sec |  | significantly better than positive drug Apixaban
8 |  |  |  |  |  | COc1ccccc1-n1nc(C(N)=O)c2c1C(=O)N(c1ccc(N3CCCC3=O)cc1C)CC2 [Example 10, 1-(2-methoxyphenyl)-7-oxo-6-[2-methyl-4-(2-oxo-pyrrolidin-1-yl)phenyl]-4,5,6,7-tetrahydro-1H-pyrazolo[3,4-c]pyridine-3-carboxamide] | 24.67 ± 2.37 * * ^Δ sec |  | superior to positive drug Apixaban
9 |  |  |  |  |  | Cc1ccc(-n2nc(C(N)=O)c3c2C(=O)N(c2ccc(N4CCCC4=O)cc2C)CC3)c(C)c1 [Example 13, 1-(2,4-dimethyl-phenyl)-7-oxo-6-[2-methyl-4-(2-oxo-pyrrolidin-1-yl)phenyl]-4,5,6,7-tetrahydro-1H-pyrazolo[3,4-c]pyridine-3-carboxamide] | 24.78 ± 2.67 * * ^Δ sec |  | superior to positive drug Apixaban
10 | 8750 ng/mL | 0.25 h | 6.5 h | 32400 ng·h/mL | 9.91 | COc1ccc(-n2nc(C(N)=O)c3c2C(=O)N(c2ccc(N4CCCC4=O)cc2C)CC3)cc1F [Example 15, 1-(3-fluoro-4-methoxyphenyl)-7-oxo-6-[2-methyl-4-(2-oxo-pyrrolidin-1-yl)phenyl]-4,5,6,7-tetrahydro-1H-pyrazolo[3,4-c]pyridine-3-carboxamide] | 27.97 ± 2.32 * * ^ΔΔ sec |  | significantly better than positive drug Apixaban
11 | 9450 ng/mL | 0.25 h | 6.2 h | 37700 ng·h/mL | 10.64 | COc1ccc(-n2nc(C(N)=O)c3c2C(=O)N(c2ccc(N4CCCC4=O)c(C)c2)CC3)cc1 [Example 16, 1-(4-methoxyphenyl)-7-oxo-6-[3-methyl-4-(2-oxo-pyrrolidin-1-yl)phenyl]-4,5,6,7-tetrahydro-1H-pyrazolo[3,4-c]pyridine-3-carboxamide] | 29.89 ± 2.72 * * ^ΔΔ sec |  | significantly better than positive drug Apixaban
12 |  |  |  |  |  | COc1ccc(-n2nc(C(N)=O)c3c2C(=O)N(c2ccc(N4CCCCC4=O)cc2C)CC3)cc1 [Example 19, 1-(4-methoxyphenyl)-7-oxo-6-[2-methyl-4-(2-oxo-piperidin-1-yl)phenyl]-4,5,6,7-tetrahydro-1H-pyrazolo[3,4-c]pyridine-3-carboxamide] | 26.73 ± 3.12 * * ^ΔΔ sec |  | significantly better than positive drug Apixaban
13 |  |  |  |  |  | Cc1cc(N2CCCCC2=O)ccc1N1CCc2c(C(N)=O)nn(-c3cccc(F)c3)c2C1=O [Example 20, 1-(3-fluorophenyl)-7-oxo-6-[2-methyl-4-(2-oxo-piperidin-1-yl)phenyl]-4,5,6,7-tetrahydro-1H-pyrazolo[3,4-c]pyridine-3-carboxamide] | 24.71 ± 3.20 * * ^Δ sec |  | superior to positive drug Apixaban
14 |  |  |  |  |  | COc1ccc(-n2nc(C(N)=O)c3c2C(=O)N(c2ccc(N4CCCCC4=O)cc2OC)CC3)cc1 [Example 21, 1-(4-methoxyphenyl)-7-oxo-6-[2-methoxy-4-(2-oxo-piperidin-1-yl)phenyl]-4,5,6,7-tetrahydro-1H-pyrazolo[3,4-c]pyridine-3-carboxamide] | 24.65 ± 2.18 * * ^Δ sec |  | superior to positive drug Apixaban

Reference: patent US9815833B2, “Pyridine derivative and medical use thereof” (Chengdu Easton Biopharmaceuticals Co., Ltd., priority 2013, dated 2017)
